In the kinase profiling compilation of Christmann-Franck et al. (2016):

What was measured:
Assay in all cases: KINOMEscan competition binding
Conditions in all cases: compound 10.0 µM
[1] = tested on: PIK3CA (human), P42336 [H1047L]
[2] = tested on: FGFR3 (human), P22607 [G697C]
[3] = tested on: FLT3 (human), P36888 [D835Y]
[4] = tested on: ABL1 (human), P00519 [F317L]
[5] = tested on: MET (human), P08581 [M1250T]
[6] = tested on: ABL1 (human), P00519 [F317I]
[7] = tested on: PIK3CA (human), P42336 [E542K]
[8] = tested on: EGFR (human), P00533 [L858R]
[9] = tested on: BMX (human), P51813 [V600E]
[10] = tested on: EGFR (human), P00533 [A750P; 747-749 del]
[11] = tested on: RET (human), P07949 [V804L]
[12] = tested on: PIK3CA (human), P42336 [M1043I]
[13] = tested on: EGFR (human), P00533 [G719C]
[14] = tested on: LRRK2 (human), Q5S007 [G2019S]
[15] = tested on: KIT (human), P10721 [A829P]

Chain of ABL1 (human), P00519 [F317L] (P00519 whole entry F317L, looked up): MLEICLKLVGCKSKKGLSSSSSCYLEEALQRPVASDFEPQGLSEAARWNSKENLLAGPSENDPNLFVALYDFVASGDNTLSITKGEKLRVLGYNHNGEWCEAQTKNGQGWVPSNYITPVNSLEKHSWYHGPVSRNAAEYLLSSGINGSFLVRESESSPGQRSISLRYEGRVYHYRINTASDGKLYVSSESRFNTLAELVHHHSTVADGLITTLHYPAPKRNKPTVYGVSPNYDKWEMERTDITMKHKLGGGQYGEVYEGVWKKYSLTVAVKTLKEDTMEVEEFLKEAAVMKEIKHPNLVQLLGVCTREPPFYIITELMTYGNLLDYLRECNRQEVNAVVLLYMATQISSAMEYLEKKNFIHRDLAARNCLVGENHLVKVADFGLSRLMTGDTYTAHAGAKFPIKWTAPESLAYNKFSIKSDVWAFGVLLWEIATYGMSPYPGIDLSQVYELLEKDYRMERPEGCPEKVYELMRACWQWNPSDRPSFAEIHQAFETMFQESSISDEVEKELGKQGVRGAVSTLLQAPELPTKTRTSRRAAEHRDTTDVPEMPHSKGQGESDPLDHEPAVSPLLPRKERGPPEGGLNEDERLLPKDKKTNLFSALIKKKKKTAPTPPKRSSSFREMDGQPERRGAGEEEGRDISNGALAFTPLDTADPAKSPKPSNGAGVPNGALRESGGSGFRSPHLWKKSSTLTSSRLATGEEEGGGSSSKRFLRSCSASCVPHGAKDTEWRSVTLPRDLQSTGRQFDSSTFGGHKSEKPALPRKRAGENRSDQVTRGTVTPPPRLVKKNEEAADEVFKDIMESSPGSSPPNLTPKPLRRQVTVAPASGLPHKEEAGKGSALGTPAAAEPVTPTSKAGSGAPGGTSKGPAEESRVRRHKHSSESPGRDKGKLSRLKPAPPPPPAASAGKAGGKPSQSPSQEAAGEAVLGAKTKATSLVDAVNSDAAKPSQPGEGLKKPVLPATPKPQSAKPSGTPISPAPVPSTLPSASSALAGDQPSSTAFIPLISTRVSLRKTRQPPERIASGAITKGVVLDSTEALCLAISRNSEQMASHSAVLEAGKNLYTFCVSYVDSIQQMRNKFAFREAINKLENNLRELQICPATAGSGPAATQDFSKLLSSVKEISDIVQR
Chain of PIK3CA (human), P42336 [M1043I] (P42336 whole entry M1043I, looked up): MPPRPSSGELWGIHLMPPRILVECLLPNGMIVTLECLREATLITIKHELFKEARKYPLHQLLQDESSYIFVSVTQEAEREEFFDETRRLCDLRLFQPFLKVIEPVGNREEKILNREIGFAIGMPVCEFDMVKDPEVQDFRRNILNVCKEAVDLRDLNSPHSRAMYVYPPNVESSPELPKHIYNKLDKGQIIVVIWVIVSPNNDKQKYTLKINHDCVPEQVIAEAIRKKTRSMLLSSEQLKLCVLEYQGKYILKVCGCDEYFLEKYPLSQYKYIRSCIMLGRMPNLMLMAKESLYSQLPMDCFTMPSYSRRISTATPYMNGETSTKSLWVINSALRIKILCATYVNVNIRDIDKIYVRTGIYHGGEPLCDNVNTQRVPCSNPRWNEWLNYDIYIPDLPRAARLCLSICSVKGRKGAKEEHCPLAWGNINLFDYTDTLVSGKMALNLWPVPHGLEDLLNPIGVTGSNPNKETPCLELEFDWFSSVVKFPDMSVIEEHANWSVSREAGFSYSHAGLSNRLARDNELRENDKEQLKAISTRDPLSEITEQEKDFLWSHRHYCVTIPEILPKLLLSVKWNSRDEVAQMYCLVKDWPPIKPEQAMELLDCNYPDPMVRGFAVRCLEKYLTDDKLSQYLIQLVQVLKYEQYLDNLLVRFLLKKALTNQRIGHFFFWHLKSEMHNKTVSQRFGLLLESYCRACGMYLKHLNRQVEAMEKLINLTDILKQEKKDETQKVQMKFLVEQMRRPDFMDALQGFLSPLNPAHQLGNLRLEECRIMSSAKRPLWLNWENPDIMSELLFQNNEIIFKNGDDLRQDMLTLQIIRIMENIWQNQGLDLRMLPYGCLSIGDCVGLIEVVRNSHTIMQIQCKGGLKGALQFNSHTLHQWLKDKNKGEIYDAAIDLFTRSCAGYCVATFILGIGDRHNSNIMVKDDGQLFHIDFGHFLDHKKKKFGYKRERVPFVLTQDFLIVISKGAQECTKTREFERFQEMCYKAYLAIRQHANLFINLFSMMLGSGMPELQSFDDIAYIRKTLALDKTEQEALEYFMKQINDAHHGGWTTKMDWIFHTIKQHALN
Chain of LRRK2 (human), Q5S007 [G2019S] (Q5S007 whole entry G2019S, looked up): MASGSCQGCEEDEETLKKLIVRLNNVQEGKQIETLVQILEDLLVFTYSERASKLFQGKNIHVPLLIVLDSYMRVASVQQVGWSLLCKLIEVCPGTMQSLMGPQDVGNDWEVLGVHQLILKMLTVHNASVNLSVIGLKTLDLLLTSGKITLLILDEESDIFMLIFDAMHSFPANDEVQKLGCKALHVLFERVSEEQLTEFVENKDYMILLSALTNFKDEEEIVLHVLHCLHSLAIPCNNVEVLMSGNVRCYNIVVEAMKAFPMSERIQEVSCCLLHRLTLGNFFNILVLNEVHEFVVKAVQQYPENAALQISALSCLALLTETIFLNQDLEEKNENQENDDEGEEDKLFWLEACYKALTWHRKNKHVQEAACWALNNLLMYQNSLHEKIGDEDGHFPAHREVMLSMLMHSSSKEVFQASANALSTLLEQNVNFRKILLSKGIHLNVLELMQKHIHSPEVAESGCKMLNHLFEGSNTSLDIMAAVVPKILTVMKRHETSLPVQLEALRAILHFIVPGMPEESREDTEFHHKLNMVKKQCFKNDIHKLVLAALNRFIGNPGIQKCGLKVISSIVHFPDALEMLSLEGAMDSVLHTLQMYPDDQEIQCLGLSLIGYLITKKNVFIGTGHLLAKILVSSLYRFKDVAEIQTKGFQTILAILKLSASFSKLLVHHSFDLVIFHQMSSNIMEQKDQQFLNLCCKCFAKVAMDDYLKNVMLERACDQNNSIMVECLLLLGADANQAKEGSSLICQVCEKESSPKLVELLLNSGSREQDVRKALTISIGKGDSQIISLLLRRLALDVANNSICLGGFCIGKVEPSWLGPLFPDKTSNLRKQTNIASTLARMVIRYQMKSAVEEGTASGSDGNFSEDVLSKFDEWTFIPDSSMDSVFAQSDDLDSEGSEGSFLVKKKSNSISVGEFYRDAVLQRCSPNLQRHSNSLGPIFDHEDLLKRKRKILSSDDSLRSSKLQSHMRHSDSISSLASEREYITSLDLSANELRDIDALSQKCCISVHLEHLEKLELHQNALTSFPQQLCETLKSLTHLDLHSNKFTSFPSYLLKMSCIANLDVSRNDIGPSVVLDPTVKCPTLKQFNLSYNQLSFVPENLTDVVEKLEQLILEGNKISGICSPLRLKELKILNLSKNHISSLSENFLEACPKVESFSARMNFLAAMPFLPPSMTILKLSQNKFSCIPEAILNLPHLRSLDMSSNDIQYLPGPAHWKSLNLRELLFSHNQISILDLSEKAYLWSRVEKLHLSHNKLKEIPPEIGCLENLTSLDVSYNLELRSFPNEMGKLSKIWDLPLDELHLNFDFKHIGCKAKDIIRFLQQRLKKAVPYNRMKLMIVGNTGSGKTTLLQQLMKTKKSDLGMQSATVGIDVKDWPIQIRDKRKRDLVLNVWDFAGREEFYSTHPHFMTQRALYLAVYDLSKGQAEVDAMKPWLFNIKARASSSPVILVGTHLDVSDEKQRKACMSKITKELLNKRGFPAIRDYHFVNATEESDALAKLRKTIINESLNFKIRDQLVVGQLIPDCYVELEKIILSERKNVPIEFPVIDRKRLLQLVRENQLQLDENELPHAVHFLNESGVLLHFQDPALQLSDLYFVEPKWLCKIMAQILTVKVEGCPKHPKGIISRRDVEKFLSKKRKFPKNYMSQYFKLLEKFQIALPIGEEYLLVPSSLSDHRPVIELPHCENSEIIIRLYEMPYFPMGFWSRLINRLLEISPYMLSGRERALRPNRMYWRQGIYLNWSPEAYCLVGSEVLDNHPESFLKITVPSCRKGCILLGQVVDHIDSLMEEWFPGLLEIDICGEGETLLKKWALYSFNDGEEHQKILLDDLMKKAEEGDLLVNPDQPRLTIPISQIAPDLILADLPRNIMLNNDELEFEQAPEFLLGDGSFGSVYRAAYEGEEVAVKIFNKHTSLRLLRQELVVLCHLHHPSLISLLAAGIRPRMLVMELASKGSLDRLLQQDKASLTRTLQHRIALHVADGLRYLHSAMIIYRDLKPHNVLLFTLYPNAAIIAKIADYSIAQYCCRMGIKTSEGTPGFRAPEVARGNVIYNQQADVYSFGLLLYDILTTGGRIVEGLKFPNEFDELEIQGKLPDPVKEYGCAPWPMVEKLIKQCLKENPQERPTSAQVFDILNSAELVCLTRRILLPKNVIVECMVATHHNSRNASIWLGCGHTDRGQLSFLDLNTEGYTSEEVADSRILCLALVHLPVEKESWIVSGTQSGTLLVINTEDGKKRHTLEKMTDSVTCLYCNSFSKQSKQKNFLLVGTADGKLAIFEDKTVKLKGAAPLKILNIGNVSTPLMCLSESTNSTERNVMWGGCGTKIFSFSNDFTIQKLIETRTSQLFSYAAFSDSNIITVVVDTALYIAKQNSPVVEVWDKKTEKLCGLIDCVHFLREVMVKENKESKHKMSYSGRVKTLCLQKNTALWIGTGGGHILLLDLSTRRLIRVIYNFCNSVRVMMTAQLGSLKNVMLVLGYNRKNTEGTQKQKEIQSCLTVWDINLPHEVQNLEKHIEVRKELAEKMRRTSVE
Chain of ABL1 (human), P00519 [F317I] (P00519 whole entry F317I, looked up): as the sequence (P00519 whole entry F317L, looked up) above, with L317I counted along it
Chain of PIK3CA (human), P42336 [E542K] (P42336 whole entry E542K, looked up): as the sequence (P42336 whole entry M1043I, looked up) above, with E542K, I1043M counted along it
Chain of PIK3CA (human), P42336 [H1047L] (P42336 whole entry H1047L, looked up): as the sequence (P42336 whole entry M1043I, looked up) above, with I1043M, H1047L counted along it

## CS(=O)(=O)N1CCN(Cc2cc3nc(-c4cccc5[nH]ncc45)nc(N4CCOCC4)c3s2)CC1
[1]
  kinase still bound, per cent of control: 9.8%
[2]
  kinase still bound, per cent of control: 100%
[3]
  kinase still bound, per cent of control: 100%
[4]
  kinase still bound, per cent of control: 100%
[5]
  kinase still bound, per cent of control: 100%
[6]
  kinase still bound, per cent of control: 100%
[7]
  kinase still bound, per cent of control: 0.45%
[8]
  kinase still bound, per cent of control: 100%
[9]
  kinase still bound, per cent of control: 100%
[10]
  kinase still bound, per cent of control: 100%
[11]
  kinase still bound, per cent of control: 100%
[12]
  kinase still bound, per cent of control: 19%
[13]
  kinase still bound, per cent of control: 100%

## N#CCNC(=O)c1ccc(-c2ccnc(Nc3ccc(N4CCOCC4)cc3)n2)cc1
[1]
  kinase still bound, per cent of control: 100%
[2]
  kinase still bound, per cent of control: 79%
[14]
  kinase still bound, per cent of control: 41%
[4]
  kinase still bound, per cent of control: 100%
[5]
  kinase still bound, per cent of control: 100%
[6]
  kinase still bound, per cent of control: 55%
[7]
  kinase still bound, per cent of control: 100%
[8]
  kinase still bound, per cent of control: 100%
[9]
  kinase still bound, per cent of control: 56%
[10]
  kinase still bound, per cent of control: 100%
[11]
  kinase still bound, per cent of control: 64%
[12]
  kinase still bound, per cent of control: 100%
[15]
  kinase still bound, per cent of control: 72%

## COc1cc(N2CCN(C)CC2)ccc1Nc1ncc2c(n1)N(C)c1ccccc1C(=O)N2C
[1]
  kinase still bound, per cent of control: 100%
[2]
  kinase still bound, per cent of control: 100%
[3]
  kinase still bound, per cent of control: 100%
[4]
  kinase still bound, per cent of control: 17%
[5]
  kinase still bound, per cent of control: 100%
[6]
  kinase still bound, per cent of control: 5%
[7]
  kinase still bound, per cent of control: 100%
[8]
  kinase still bound, per cent of control: 100%
[9]
  kinase still bound, per cent of control: 100%
[10]
  kinase still bound, per cent of control: 100%
[11]
  kinase still bound, per cent of control: 100%
[12]
  kinase still bound, per cent of control: 100%
[13]
  kinase still bound, per cent of control: 100%

## CCC(=O)N1CCN(c2ccc(-n3c(=O)ccc4cnc5ccc(-c6cnc7ccccc7c6)cc5c43)cc2C(F)(F)F)CC1
[1]
  kinase still bound, per cent of control: 2.6%
[14]
  kinase still bound, per cent of control: 99%
[3]
  kinase still bound, per cent of control: 16%
[4]
  kinase still bound, per cent of control: 100%
[5]
  kinase still bound, per cent of control: 79%
[6]
  kinase still bound, per cent of control: 100%
[7]
  kinase still bound, per cent of control: 1%
[8]
  kinase still bound, per cent of control: 100%
[9]
  kinase still bound, per cent of control: 88%
[10]
  kinase still bound, per cent of control: 100%
[11]
  kinase still bound, per cent of control: 66%
[12]
  kinase still bound, per cent of control: 8.6%

## OCCCNc1cc(-c2ccnc(Nc3cccc(Cl)c3)n2)ccn1
[1]
  kinase still bound, per cent of control: 100%
[2]
  kinase still bound, per cent of control: 100%
[3]
  kinase still bound, per cent of control: 19%
[4]
  kinase still bound, per cent of control: 100%
[5]
  kinase still bound, per cent of control: 100%
[6]
  kinase still bound, per cent of control: 100%
[7]
  kinase still bound, per cent of control: 100%
[8]
  kinase still bound, per cent of control: 100%
[9]
  kinase still bound, per cent of control: 100%
[10]
  kinase still bound, per cent of control: 100%
[11]
  kinase still bound, per cent of control: 100%
[12]
  kinase still bound, per cent of control: 100%
[13]
  kinase still bound, per cent of control: 100%

## COc1cc(C(=O)NC2CCN(C)CC2)ccc1Nc1ncc2c(n1)N(C1CCCC1)CCC(=O)N2C(C)C
[1]
  kinase still bound, per cent of control: 100%
[2]
  kinase still bound, per cent of control: 100%
[3]
  kinase still bound, per cent of control: 100%
[4]
  kinase still bound, per cent of control: 100%
[5]
  kinase still bound, per cent of control: 100%
[6]
  kinase still bound, per cent of control: 100%
[7]
  kinase still bound, per cent of control: 100%
[8]
  kinase still bound, per cent of control: 100%
[9]
  kinase still bound, per cent of control: 100%
[10]
  kinase still bound, per cent of control: 100%
[11]
  kinase still bound, per cent of control: 0%
[12]
  kinase still bound, per cent of control: 100%
[13]
  kinase still bound, per cent of control: 100%

## CCN(CC)CCCCNc1ncc2c(n1)N(C)C(=O)N(c1c(Cl)c(OC)cc(OC)c1Cl)C2
[1]
  kinase still bound, per cent of control: 100%
[2]
  kinase still bound, per cent of control: 1.3%
[3]
  kinase still bound, per cent of control: 100%
[4]
  kinase still bound, per cent of control: 100%
[5]
  kinase still bound, per cent of control: 100%
[6]
  kinase still bound, per cent of control: 100%
[7]
  kinase still bound, per cent of control: 100%
[8]
  kinase still bound, per cent of control: 100%
[9]
  kinase still bound, per cent of control: 100%
[10]
  kinase still bound, per cent of control: 100%
[11]
  kinase still bound, per cent of control: 100%
[12]
  kinase still bound, per cent of control: 100%
[13]
  kinase still bound, per cent of control: 100%

## COc1cc2ncn(-c3cc(OCc4ccccc4C(F)(F)F)c(C(N)=O)s3)c2cc1OC
[1]
  kinase still bound, per cent of control: 73%
[2]
  kinase still bound, per cent of control: 26%
[14]
  kinase still bound, per cent of control: 60%
[3]
  kinase still bound, per cent of control: 26%
[4]
  kinase still bound, per cent of control: 70%
[5]
  kinase still bound, per cent of control: 31%
[6]
  kinase still bound, per cent of control: 100%
[7]
  kinase still bound, per cent of control: 100%
[8]
  kinase still bound, per cent of control: 47%
[9]
  kinase still bound, per cent of control: 92%
[10]
  kinase still bound, per cent of control: 50%
[11]
  kinase still bound, per cent of control: 24%
[13]
  kinase still bound, per cent of control: 94%
[15]
  kinase still bound, per cent of control: 57%
